For assay [1], the system named is genioglossus muscle. As to the kind of experiment: EMG recording of the genioglossus muscle in anesthetized rats. Type of assay: in vivo, rat. The following applies: 1 mg/kg intravenous, 10 min after administration, versus vehicle, FIG. 5. Here is the method:
EMG recording of the genioglossus muscle was conducted as described previously (G. H. Zhang, et al.) with slight modifications. Rats were anaesthetized with urethane (2.0 g/kg, intraperitoneal injection). Anesthetic depth was assessed by the reflex responses to paw pinches. The tail vein was cannulated for intravenous drug administration. Each rat was laid on a servo-controlled electric heating pad. The body temperature of the rat was monitored with a rectal probe of the pad and kept at around 37° C. […] After 10 min of baseline recording, vehicle (0.1% [w/v] Polysorbate 80 and 20% [w/v] Captisol solution) or Compound C was administered intravenously and then EMG was recorded for 10 min. EMG was amplified 1,000-fold, band-pass filtered (100-5,000 Hz) using Microelectrode AC Amplifier (Model 1800; A-M systems, Carlsborg, WA, USA), digitized using AD converter (Power 1401; Cambridge Electronic Design, Cambridge, UK), recorded using Spike2 software (Cambridge Electronic Design), and then rectified and integrated with a time constant decay (100 ms) using LabChart software (AD Instruments). […] Bursts were then automatically detected, and burst amplitude was measured. […]

Assay [2] concerns patients with obstructive sleep apnea. Briefly: Phase 1b crossover study in obstructive sleep apnea: overnight polysomnography (PSG). Type of assay: in vivo, human. Here is the method: A phase 1b, randomized, double-blind, placebo-controlled, 3-period crossover study was conducted to evaluate the safety, tolerability, pharmacodynamic, and pharmacokinetic effects of overnight intravenous COMPOUND A in patients with obstructive sleep apnea (OSA). This study was planned to further evaluate COMPOUND A intravenous administration (IV) in adults with OSA, hypothesizing that nonwake-promoting exposures of COMPOUND A would increase genioglossal muscle tone and increase airway patency via the increasing activity of hypoglossal motoneurons. The main goal of this study was to evaluate the mechanistic potential of OX2R agonism for treatment of OSA using COMPOUND A IV infusion to determine appropriate use in future trials with an oral OX2R agonist.
Participants were male or female, aged 18 to 75 years inclusive, with OSA diagnosed according to the International Classification of Sleep Disorders-3 (ICSD-3) criteria and an apnea hypopnea index (AHI) of 12 to 50 events/hour of sleep. The study consisted of a screening period, 3 treatment periods separated by 2 washout periods, and a follow-up period. A total of 13 participants were enrolled and randomized, of which 12 (92.3%) participants completed all planned doses of study drug and the study.
Eligible participants were randomly assigned (in a double-blinded manner) to 1 of 6 treatment sequences. In each treatment period, participants underwent 3 UACI assessments, a 10-minute evaluation that tested the key biological mechanism that causes OSA (as described by Osman, A. M., et al., 2019, Sleep, 42 (7), 1-10), followed by an overnight polysomnography (PSG). After the first baseline UACI assessment (U1), an IV infusion regimen of COMPOUND A or placebo was administered over approximately 10 hours to achieve specific plasma concentrations to evaluate the effect of COMPOUND A on the UACI and PSG metrics. Target plasma concentrations for the low-dose COMPOUND A IV regimen were 10 ng/mL for the second UACI (U2), 30 ng/ml for the third UACI (U3), and 10 ng/ml for the overnight PSG. Target plasma concentrations for the high-dose COMPOUND A IV regimen were 30 ng/mL for the U2, 90 ng/mL for the U3, and 30 ng/ml for the overnight PSG.
To achieve the target exposures for the UACI assessments (U2 and U3), there was a 20-minute loading period, followed by a 15-minute maintenance period for each. The overnight maintenance dose (approximately 490 minutes) covered the duration of a standard overnight PSG (approximately 8 hours). Doses were selected to cover the potential pharmacologically active concentration range for upper airway collapsibility. The concentration of COMPOUND A in solution was such that participants received the same volume of fluid in the low-dose COMPOUND A regimen, the high-dose COMPOUND A regimen, and placebo, allowing the study to be double-blinded and ensuring all participants were infused with the same volume of fluid.
Following the baseline UACI measurements, IV infusion of placebo or COMPOUND A began. COMPOUND A was tested at 2 concentrations in a stepwise manner, consisting of a 20 minute loading period followed by a 15 minute maintenance period per step. The UACI was tested at each concentration during the maintenance period. A Karolinska Sleepiness Scale (KSS) was administered immediately prior to each UACI testing period to gauge subjective sleepiness. After the U3 test, a KSS was administered, after which the UACI testing equipment (pressure sensors, genioglossus EMG electrodes) was removed with the exception of EEG electrodes that remained in place to record PSG throughout the evening. Prior to lights off, a final KSS was administered. Lights-off occurred, and participants were then allowed to sleep until the following morning (Day 2). Infusion of COMPOUND A/placebo was maintained throughout the night during the nocturnal PSG (nPSG) and ended approximately 8 hours after lights off. Participants were then discharged on Day 2. […]

The target of assay [3] is T1, OX2R (Homo sapiens, UniProt O43614).
T1 sequence (O43614 1-444): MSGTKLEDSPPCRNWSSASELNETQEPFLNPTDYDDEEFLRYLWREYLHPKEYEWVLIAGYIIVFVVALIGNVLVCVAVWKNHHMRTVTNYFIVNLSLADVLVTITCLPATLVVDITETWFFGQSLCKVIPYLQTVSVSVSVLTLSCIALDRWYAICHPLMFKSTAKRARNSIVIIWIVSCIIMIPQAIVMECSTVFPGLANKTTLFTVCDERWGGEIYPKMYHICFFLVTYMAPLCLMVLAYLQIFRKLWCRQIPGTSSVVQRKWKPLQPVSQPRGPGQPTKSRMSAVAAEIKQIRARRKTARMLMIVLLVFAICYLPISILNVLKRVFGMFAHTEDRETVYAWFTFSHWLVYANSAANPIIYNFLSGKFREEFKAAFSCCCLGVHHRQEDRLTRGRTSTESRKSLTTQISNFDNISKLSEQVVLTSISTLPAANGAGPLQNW
The following applies: OX2R-expressed recombinant cells; cited from earlier work.

Where [4] appears, read: 30 ng/ml continuously throughout the sleep period.

SMILES strings stand for the structures.

Take `CC(C)(O)C(=O)N1CC(F)(F)[C@H](NS(C)(=O)=O)[C@@H]1Cc1cccc(-c2cc(F)cc(F)c2)c1F` [Compound C, N-{(2S,3R)-4,4-difluoro-1-(2-hydroxy-2-methylpropanoyl)-2-[(2,3′,5′-trifluoro[1,1′-biphenyl]-3-yl)methyl]pyrrolidin-3-yl}methanesulfonamide]: the “burst amplitude of the genioglossus muscle” value in assay [1] is on record as “significantly increased burst amplitude”.

As for `COC(=O)N1CCC[C@H](NS(C)(=O)=O)[C@@H]1CO[C@H]1CC[C@@H](c2ccccc2)CC1` (relative stereo) [Compound A, methyl(2R,3S)-3-((methylsulfonyl)amino)-2-(((cis-4-phenylcyclohexyl)oxy)methyl) piperidine-1-carboxylate], in assay [2] (setting [4]), the REM entry is given as “significantly decreased”, the “ability to fall asleep” value is recorded as “did not cause an inability to fall asleep”, the sleep efficiency result was “reducing” and the “wake after sleep onset” value is listed as “increasing”. For the same molecule, in assay [2] (high-dose regimen), the “arousal threshold in response to ventilatory disturbance” value is “decreased”, the hypoxic burden estimate is at most 53 %*minutes/hour and the loop gain entry is “decreased”. Also, the “AHI LS mean” value in assay [2] (high-dose regimen of 30 ng/ml overnight) is listed as “less than 30 events/hour”. The “decrease in AHI” value in assay [2] (high-dose regimen of 30 ng/ml overnight, statistically and clinically significant) is recorded as “approximately 9 events/hour”. Besides, the “pharyngeal collapsibility during sleep (Vpassive and Vactive)” value in assay [2] (high-dose regimen, OSA endotypes) is given as “appeared to decrease”. Besides, the hypoxic burden result in assay [2] (high-dose regimen, placebo-adjusted difference statistically significant) is listed as “beneficial reduction in hypoxic burden”. Besides, in assay [2] (low-dose regimen), the hypoxic burden estimate is at most 53 %*minutes/hour. The “recruitment of β-arrestins” value in assay [3] is given as “promote recruitment of β-arrestins”.

(Values after US20260256753A1, “USE OF AN OREXIN 2 RECEPTOR AGONIST FOR IMPROVING RESPIRATORY FUNCTION DURING SLEEP” (TAKEDA PHARMACEUTICAL COMPANY LIMITED, priority 2023, published 2026).)
